21 compounds from patent US7511041B2, “Fused azole-pyrimidine derivatives” (Bayer Pharmaceuticals Corporation, priority 2002, dated 2009) can be followed below.

Each structure is given as a SMILES string. Structures can show the parent of a compound that is named as a salt.

A word on the melting point: it is the temperature of the solid-liquid transition. On to `COc1cc2c(cc1OC)C1=NCCN1C(/C=C(\O)c1cccnc1)=N2` (as salt: hydrochloride) [Example 1-2, (Z)-2-(8,9-Dimethoxy-2,3-dihydroimidazo[1,2-c]quinazolin-5-yl)-1-(3-pyridinyl)-ethenol hydrochloride], for which the melting point is more than 300 °C.
In turn, `COc1c(O)ccc2c1N=C(/C=C(\O)c1cccnc1)N1CCN=C21` (as salt: hydrochloride) [Example 1-4, 5-(2-Hydroxy-2-pyridin-3-ylvinyl)-7-methoxy-2,3-dihydroimidazo[1,2-c]quinazolin-8-ol hydrochloride] came in with a melting point of 245 °C.
`COc1c(OCCCC(=O)O)ccc2c1N=C(/C=C(\O)c1cccnc1)N1CCN=C21` (as salt: hydrochloride) [Example 1-7, 4-{[5-(2-Hydroxy-2-pyridin-3-ylvinyl)-7-methoxy-2,3-dihydroimidazo[1,2-c]quinazolin-8-yl]oxy}butanoic acid hydrochloride]: the melting point lay within 249 to 251 °C.
As for `O=C(NC1=Nc2ccccc2C2=NCCN12)c1cccnc1` (as salt: hydrochloride) [Example 2-2, N-(2,3-Dihydroimidazo[1,2-c]quinazolin-5-yl)nicotinamide hydrochloride], the figure is 289 °C (dec.); as for `O/C(=C\c1nc2ccccc2c2nccn12)c1cccs1` (as salt: hydrochloride) [Example 3-1, (Z)-2-Imidazo[1,2-c]quinazolin-5-yl-1-(2-thienyl)ethenol], 263 °C (dec.); as for `O=C(Nc1nc2ccccc2c2nccn12)c1cccnc1` (as salt: hydrochloride) [Example 4-2, N-Imidazo[1,2-c]quinazolin-5-ylnicotinamide hydrochloride], 228 °C (dec.).
On to `COc1ccc2c(c1OC)N=C(/C=C(\O)c1cccnc1)N1CCN=C21.Cl` [Example 1-11], for which the melting point lay in the range of 249 to 250 °C.
Consider `COc1c(OCCO)ccc2c1N=C(/C=C(\O)c1cccnc1)N1CCN=C21.Cl` [Example 1-17], for which the melting point is 215 °C (dec.).
Regarding `COc1c(OCC(N)=O)ccc2c1N=C(/C=C(\O)c1cccnc1)N1CCN=C21.Cl` [Example 1-24], the melting point was 235 °C (dec.).
In the case of `COc1c(OCC(=O)N(C)C)ccc2c1N=C(/C=C(\O)c1cccnc1)N1CCN=C21.Cl` [Example 1-28], the melting point was 205 °C (dec.).
In turn, `COc1c(OCC(=O)N2CCOCC2)ccc2c1N=C(/C=C(\O)c1cccnc1)N1CCN=C21.Cl` [Example 1-30] showed a melting point of 240 to 241 °C.
As for `COc1c(C)ccc2c1N=C(/C=C(\O)c1ccc3[nH]cnc3c1)N1CCN=C21.Cl` [Example 1-35], the melting point was 270 °C.
Turning to `COc1ccc2c(c1OCCN1CCOCC1)N=C(/C=C(\O)c1cccnc1)N1CCN=C21.Cl` [Example 1-37], the melting point is 215 °C.
On to `Cc1ccc2c(c1OCCN1CCOCC1)N=C(/C=C(\O)c1cccnc1)N1CCN=C21.Cl` [Example 1-40], for which the melting point was 256 °C (dec.).
In the case of `COc1cc(OC)c2c(c1)C1=NCCN1C(/C=C(\O)c1cccnc1)=N2.Cl` [Example 1-43], the melting point was 290 °C (dec.).
As for `Cc1cc(Br)c2c(c1)C1=NCCN1C(/C=C(\O)c1ccc3[nH]cnc3c1)=N2.Cl` [Example 1-48], the figure is more than 285 °C; as for `COc1cc2c(cc1OC)C1=NCCN1C(/C=C(\O)c1ccc3[nH]cnc3c1)=N2` [Example 1-56], 212 to 215 °C; as for `COc1cc2c(cc1OC)C1=NCCN1C(/C=C(\O)c1cccs1)=N2.Cl` [Example 1-59], 266 to 268 °C.
Turning to `COc1cc2c(cc1OC)C1=NCCN1C(/C=C(\O)c1sc(C)nc1C)=N2.Cl` [Example 1-61], the melting point lay in the range of 268 to 271 °C.
As for `COc1cc2c(c(OC)c1C)N=C(/C=C(\O)c1cccnc1)N1CCN=C21.Cl` [Example 1-63], the figure is 285 °C; as for `COc1cc2c(c(OC)c1C)N=C(/C=C(\O)c1ccc(NC(C)=O)nc1)N1CCN=C21.Cl` [Example 1-65], more than 285 °C.
